# Reference: patent US12152057B2, “Fusion proteins for inhibiting angiogenesis” (priority 2015, dated 2024)
# Assays:
# HUVECs = experiment: HUVEC tube formation on matrigel; format: cell-based; conditions: Homo sapiens, 18-hour incubation, read-out: IC50 (μM), inhibition of tube formation
# Experimental: HUVECs (1.5×10^4 cells/well) were placed in a 96-well matrigel-coated plate. Six doses of Fusion Protein 1 (0.1 μM, 0.3 μM, 1 μM, 3 μM, 10 μM, and 30 μM) and vehicle were added to each well in growth media under an atmosphere of 5% CO2 at 37° C. After an 18-hour incubation period, morphology of the endothelial cell tubes, which resemble a capillary-like network, were evaluated by photomicroscopy. Disruption (anti-angiogenesis) of total tube length was measured from each photograph and determined relative to the vehicle control group. […] Suramin was used as an anti-angiogenic positive control (Positive Control 5) for all studies.
# [1] = molecular target: T1, integrin α5β1 (K562 cells) (Homo sapiens, UniProt P05556+P08648); experiment: Adhesion of α5β1-expressing K562 cells to fibronectin; format: cell-based; conditions: K562 cell adhesion to fibronectin
# T1 construct: α5β1-expressing K562 cells to fibronectin; host or cells: K562 human erythroleukemia cells
# T1 sequence (P08648 42-894 limits assumed): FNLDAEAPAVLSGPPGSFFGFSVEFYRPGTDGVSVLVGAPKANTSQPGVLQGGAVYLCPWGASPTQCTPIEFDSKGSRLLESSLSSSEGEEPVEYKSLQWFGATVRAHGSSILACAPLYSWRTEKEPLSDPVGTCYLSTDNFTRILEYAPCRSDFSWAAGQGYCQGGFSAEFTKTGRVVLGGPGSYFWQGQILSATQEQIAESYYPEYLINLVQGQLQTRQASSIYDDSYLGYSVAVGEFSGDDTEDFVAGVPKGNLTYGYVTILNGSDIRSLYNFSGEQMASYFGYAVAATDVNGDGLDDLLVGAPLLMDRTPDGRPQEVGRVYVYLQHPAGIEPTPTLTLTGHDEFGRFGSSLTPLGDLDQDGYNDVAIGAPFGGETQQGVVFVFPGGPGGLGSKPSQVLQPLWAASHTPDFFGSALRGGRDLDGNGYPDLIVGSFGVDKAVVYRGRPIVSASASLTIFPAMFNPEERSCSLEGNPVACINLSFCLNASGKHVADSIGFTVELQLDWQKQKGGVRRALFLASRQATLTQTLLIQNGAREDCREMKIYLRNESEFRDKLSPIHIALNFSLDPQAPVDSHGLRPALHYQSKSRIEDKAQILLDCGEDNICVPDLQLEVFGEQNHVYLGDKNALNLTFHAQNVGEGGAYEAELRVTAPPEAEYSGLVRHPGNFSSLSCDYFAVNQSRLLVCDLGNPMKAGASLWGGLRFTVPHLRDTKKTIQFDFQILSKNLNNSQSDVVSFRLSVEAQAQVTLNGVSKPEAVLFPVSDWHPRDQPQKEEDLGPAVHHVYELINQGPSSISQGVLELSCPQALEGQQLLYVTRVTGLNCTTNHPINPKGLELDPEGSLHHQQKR
# T1 sequence (P08648 895-1049 limits assumed): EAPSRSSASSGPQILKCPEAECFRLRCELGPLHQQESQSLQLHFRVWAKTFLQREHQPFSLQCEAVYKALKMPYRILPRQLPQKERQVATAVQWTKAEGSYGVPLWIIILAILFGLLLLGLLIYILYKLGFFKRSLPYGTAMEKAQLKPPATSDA
# T1 sequence (P05556 21-798): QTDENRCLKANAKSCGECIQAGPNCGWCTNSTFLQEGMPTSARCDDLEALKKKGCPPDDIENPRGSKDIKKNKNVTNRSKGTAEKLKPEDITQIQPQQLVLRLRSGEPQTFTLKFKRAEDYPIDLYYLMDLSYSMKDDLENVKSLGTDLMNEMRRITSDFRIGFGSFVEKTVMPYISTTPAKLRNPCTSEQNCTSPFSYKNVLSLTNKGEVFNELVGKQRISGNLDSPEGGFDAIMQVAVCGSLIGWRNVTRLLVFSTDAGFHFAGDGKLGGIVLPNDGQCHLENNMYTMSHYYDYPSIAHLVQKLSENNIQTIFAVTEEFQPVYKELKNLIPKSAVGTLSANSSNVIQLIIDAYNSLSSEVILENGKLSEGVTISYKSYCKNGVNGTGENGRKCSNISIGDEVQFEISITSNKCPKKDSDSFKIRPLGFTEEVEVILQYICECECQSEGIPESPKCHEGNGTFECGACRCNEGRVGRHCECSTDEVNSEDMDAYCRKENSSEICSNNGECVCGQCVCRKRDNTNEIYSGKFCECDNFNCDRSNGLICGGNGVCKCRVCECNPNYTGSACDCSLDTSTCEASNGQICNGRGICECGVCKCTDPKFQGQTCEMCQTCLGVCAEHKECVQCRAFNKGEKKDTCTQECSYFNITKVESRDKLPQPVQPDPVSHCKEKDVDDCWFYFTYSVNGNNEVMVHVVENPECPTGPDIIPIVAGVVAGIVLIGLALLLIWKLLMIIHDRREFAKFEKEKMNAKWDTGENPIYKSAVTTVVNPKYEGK
# Experimental: (§1) The adhesion of αvβ3-overexpressing CHO cells to fibrinogen and α5β1-expressing K562 cells to fibronectin were evaluated in the presence of fusion proteins.
# (§2) 96-well Immulon-2 microtiter plates (Costar, Corning, NY) were coated with 100 μL of phosphate-buffered saline (PBS: 10 mM phosphate buffer, 0.15 M NaCl, pH 7.4) containing substrates at a concentration of 50-500 nM, and incubated overnight at 4° C. The substrates and their coating concentrations were fibrinogen (Fg) at 200 μg/mL and fibronectin (Fn) at 25 μg/mL. Non-specific protein binding sites were blocked by incubating each well with 200 μL of heat-denatured 1% bovine serum albumin (BSA) (Calbiochem) at room temperature for 1.5 hours. The heat-denatured BSA was discarded and each well was washed twice with 200 μL of PBS.
# (§3) CHO cells that expressed the integrin αvβ3 (CHO-αvβ3) from the same source of Patent Application No. PCT/US2015/46322 were maintained in DMEM. Human erythroleukemia K562 was maintained as written in Patent Application No. PCT/US2015/46322 from ATCC and cultured in Roswell Park Memorial Institute (RPMI)-1640 medium containing 5% FCS. […] Bound cells were quantified by crystal violet staining. […] The resulting absorbance was read at 600 nm and the readings were correlated with the number of adhering cells. […]
# [2] = system: integrin αvβ3 (CHO-αvβ3 cells); experiment: Adhesion of αvβ3-overexpressing CHO cells to fibrinogen; format: cell-based; conditions: CHO-αvβ3 cell adhesion to fibrinogen
# Experimental: as §1, §2, §3
# integrin αvβ3 = integrin αvβ3 (Homo sapiens, UniProt P05106+P06756); experiment: Competitive binding ELISA of soluble integrin αvβ3 to vitronectin; conditions: vitronectin-coated plate
# integrin αvβ3, sequence (P06756 31-889 limits assumed): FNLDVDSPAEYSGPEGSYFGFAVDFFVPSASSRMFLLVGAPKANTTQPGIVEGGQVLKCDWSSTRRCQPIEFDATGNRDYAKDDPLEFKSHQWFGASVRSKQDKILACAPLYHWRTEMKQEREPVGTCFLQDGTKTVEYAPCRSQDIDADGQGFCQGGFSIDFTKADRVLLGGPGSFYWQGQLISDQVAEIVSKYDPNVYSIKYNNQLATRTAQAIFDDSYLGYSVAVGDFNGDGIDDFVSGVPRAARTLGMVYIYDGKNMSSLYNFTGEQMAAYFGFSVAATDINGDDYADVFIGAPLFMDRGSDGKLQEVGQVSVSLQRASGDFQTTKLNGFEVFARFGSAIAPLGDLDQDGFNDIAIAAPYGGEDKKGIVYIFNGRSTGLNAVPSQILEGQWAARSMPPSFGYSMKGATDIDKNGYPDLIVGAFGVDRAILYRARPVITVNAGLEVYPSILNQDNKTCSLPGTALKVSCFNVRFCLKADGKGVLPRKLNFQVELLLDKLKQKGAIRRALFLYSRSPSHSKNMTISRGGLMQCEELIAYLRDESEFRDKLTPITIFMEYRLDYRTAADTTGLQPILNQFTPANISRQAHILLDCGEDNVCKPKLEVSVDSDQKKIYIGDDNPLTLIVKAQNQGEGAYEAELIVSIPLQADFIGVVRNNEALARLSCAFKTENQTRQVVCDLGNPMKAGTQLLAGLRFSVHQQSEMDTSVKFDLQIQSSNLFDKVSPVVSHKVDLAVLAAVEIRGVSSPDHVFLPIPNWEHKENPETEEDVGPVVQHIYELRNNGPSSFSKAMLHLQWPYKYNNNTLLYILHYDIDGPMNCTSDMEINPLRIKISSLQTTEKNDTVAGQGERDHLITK
# integrin αvβ3, sequence (P06756 891-992 limits assumed): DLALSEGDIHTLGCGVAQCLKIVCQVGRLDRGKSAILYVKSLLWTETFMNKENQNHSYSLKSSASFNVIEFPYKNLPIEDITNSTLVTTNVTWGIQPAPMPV
# integrin αvβ3, sequence (P05106 27-718 limits assumed): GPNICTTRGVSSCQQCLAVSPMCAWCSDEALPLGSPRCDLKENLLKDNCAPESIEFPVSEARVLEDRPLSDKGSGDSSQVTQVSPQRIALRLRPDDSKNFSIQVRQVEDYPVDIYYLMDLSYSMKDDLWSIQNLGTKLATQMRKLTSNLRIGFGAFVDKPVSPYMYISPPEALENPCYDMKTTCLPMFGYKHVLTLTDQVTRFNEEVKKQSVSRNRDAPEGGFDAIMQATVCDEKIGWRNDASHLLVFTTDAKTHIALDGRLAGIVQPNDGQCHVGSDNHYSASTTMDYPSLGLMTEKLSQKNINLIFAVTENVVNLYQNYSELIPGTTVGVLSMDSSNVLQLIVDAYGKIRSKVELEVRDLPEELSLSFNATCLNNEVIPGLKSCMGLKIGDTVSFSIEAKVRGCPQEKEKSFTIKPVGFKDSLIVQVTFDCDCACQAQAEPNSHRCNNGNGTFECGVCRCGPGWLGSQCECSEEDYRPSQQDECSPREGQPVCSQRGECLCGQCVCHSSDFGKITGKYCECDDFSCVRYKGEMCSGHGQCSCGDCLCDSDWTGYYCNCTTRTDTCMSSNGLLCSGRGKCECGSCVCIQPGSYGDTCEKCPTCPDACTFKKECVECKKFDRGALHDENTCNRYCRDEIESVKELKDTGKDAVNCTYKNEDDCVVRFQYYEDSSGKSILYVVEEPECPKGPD
# Experimental: The competitive binding was used to measure the binding affinity of Fusion Protein 1 of the invention to integrin αvβ3.
# 1 μg/mL victronectin dissolved in coating solution were added to each well of a 96-well ELISA plate, and the plate was incubated overnight at 4° C. The wells were washed twice with PBS buffer, and excess liquid was carefully removed with a paper towel.
# Blocking solution (5 g non-fat skim milk in 100 mL 1×PBS) were added to each well, and the plate was incubated at room temperature for 1 hour. The wells were washed twice with 1×PBS buffer.
# One hundred microliters […] of the serially diluted samples were added to each well. The plate was covered and incubated on a plate shaker (˜100 rpm) for 1 hour at room temperature. The wells were washed three times with wash buffer (1×PBS, 0.05% Tween-20).
# Diluted primary anti-integrin αv antibody was added and incubated, then washed. Horseradish peroxidase-conjugated goat anti-human IgG Fc specific antibodies in blocking solution were added to each well. […]
# (§4) The optical density (OD) of each well was determined using an ELISA plate reader at an absorbance wavelength of 450 nm. The absorbance was plotted against the protein concentration of the fusion protein or the control, and the concentration at which the signal was half the maximal inhibition concentration (IC50) was determined.
# [3] = system: human umbilical vein endothelial cell (HUVEC); experiment: VEGF165-induced HUVEC proliferation assay (MTS); format: cell-based; conditions: VEGF165 8 ng/mL, 72 hours, read-out: IC50 (nM), inhibition of cell proliferation
# Experimental: A human umbilical vein endothelial cell (HUVEC) proliferation assay was carried out to test the functionality of the fusion proteins of the invention. A commercially available VEGF Trap, aflibercept (Eylea®, Regeneron), was included as Positive Control 2.
# 100 μL of a coating solution (1% gelatin in double distilled water) were added to each well of a 96-well ELISA plate, and the plate was incubated for 2 hours or overnight at 37° C. The wells were washed twice with 1×PBS buffer.
# 3500 counts of human umbilical vein endothelial cells in endothelial cell growth medium were added to each well, and the plate was incubated overnight at 37° C.
# Fusion protein samples were diluted in assay buffer (Medium-199 1× Earle's Salts, 10% fetal bovine serum, 10 mM HEPES, lx antibiotic/antimycotic), with a highest protein concentration of 300 nM. The fusion protein samples were mixed with VEGF165 (8 ng/mL), and the mixtures were incubated overnight at room temperature. The wells were then washed with 200 μL of 1×PBS.
# 100 μL of the VEGF165/sample mixture were added to each well, and the plates were incubated for 72 hours at 37° C. with 5% CO2. […]
# The OD of each well was determined using an ELISA plate reader at an absorbance wavelength of 490 nm. […]
# [4] = system: VEGF-induced leakage in Dutch Belted Rabbits; experiment: Dose-response VEGF-induced retinal leakage in Dutch Belted rabbits (Example 9); format: in vivo; conditions: FA scale 0 (normal) to 4 (severe)
# Experimental: Fusion proteins of the invention were tested in an in vivo model of retinal vascular permeability at varying doses to determine their dose-response effectiveness in preventing vascular leakage. In this model, human VEGF165 was intravitreally injected to the vitreous of rabbit eyes to induce retinal leakage.
# On Day 1, Dutch Belted rabbits were intravitreally injected with Fusion Protein 1 according to an embodiment of the invention at various doses, vehicle (negative) control, or reference (positive) controls. Vascular leakage was induced by injecting exogenous VEGF165 into the same eyes on Day 3.
# FAs were conducted on all dosage groups 3 days after the VEGF-induction (Day 6) to assess leakiness and tortuosity using a scale from 0 (normal) to 4 (severe).
# Signs of ocular irritation were scored using the Draize scoring system prior to fusion protein dosing, VEGF induction, and assessments. According to the Draize analysis, all of the rabbit eyes were normal prior to the initiation of dosing. […] There were no drug-related findings evident during the course of the study.
# human VEGF165 = molecular target: T2, human VEGF165 (Homo sapiens, UniProt P15692); experiment: Direct binding ELISA to human VEGF165; conditions: coated VEGF165 1 μg/mL, read-out: EC50 (nM), binding affinity to VEGF165
# T2 sequence (P15692 27-191 isoform P15692-4): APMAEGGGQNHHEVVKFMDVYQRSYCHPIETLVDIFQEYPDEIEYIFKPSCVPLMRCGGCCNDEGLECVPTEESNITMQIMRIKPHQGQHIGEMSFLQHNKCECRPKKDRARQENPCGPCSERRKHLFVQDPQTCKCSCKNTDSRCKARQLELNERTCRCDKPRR
# Experimental: A direct binding enzyme-linked immunosorbent assay (ELISA) was used to measure the binding affinity of fusion proteins of the invention to human VEGF165, a splice variant of VEGF-A.
# 100 μL of a coating solution (1 μg/mL VEGF165 in 1× phosphate buffered saline (PBS), pH 7.2) were added to each well of a 96-well ELISA plate, and the plate was incubated overnight at 4° C. The wells were washed twice with 400 μL of 1×PBS buffer, and excess liquid was carefully removed with a paper towel.
# 400 μL of a blocking solution (5 g non-fat skim milk in 100 mL 1×PBS) were added to each well, and the plate was incubated at room temperature for 1 hour. The wells were washed twice with 1×PBS buffer.
# Fusion protein and control samples were serially diluted three-fold in blocking solution, with a highest protein concentration of 10 nM. 100 μL of the serially diluted samples were added to each well. The plate was covered and incubated on a plate shaker (˜100 rpm) for 1 hour at room temperature. The wells were washed three times with wash buffer (1×PBS, 0.05% Tween-20). […]
# as §4, with “effective” for “inhibition”, “(EC50)” for “(IC50)”
# [5] = system: VEGF-induced leakage in Dutch Belted Rabbits; experiment: VEGF-induced retinal leakage in Dutch Belted rabbits (Example 8); format: in vivo; conditions: FA scale 0 (normal) to 4 (severe)
# Experimental: Fusion proteins of the invention were tested in an in vivo model of vascular permeability to determine their efficacy in preventing vascular leakage. In this model, VEGF was intravitreally injected to the vitreous of rabbit eyes to induce uncontrolled retinal leakage. Aflibercept (Eylea®, Regeneron), a recombinant fusion protein consisting of portions of human VEGFR1 and VEGFR2 fused to the Fc portion of human IgG1, and bevacizumab (Avastin®, Roche), a recombinant humanized monoclonal antibody that blocks angiogenesis by inhibiting VEGF-A were included as Positive Controls 2 and 6, respectively.
# Dutch Belted rabbits were anesthetized using isoflurane (3-5%), and their eyes were treated with ophthalmic Betadine solution. The rabbits' eyes were then washed with sterile saline, and lidocaine hydrochloride (2% injectable) or proparacaine (0.5%) was applied to the ocular surface.
# On Day 1, Dutch Belted rabbits were intravitreally injected with fusion proteins of the invention, vehicle (negative) control, or reference (positive) controls at predetermined doses using a BD 300 μL insulin syringe (31 ga× 5/16 inch). […]
# Signs of ocular irritation were scored using the Draize scoring system prior to fusion protein dosing, VEGF induction, and assessments. […]
compound,measurement,setting,value
"Cc1ccc(C(=O)Nc2ccc(S(=O)(=O)O)c3cc(S(=O)(=O)O)cc(S(=O)(=O)O)c23)cc1NC(=O)c1cccc(NC(=O)Nc2cccc(C(=O)Nc3cc(C(=O)Nc4ccc(S(=O)(=O)O)c5cc(S(=O)(=O)O)cc(S(=O)(=O)O)c45)ccc3C)c2)c1 [Positive Control 5, Suramin]",IC50,HUVECs,15.8 µM
Rhodostomin [Positive Control 3],IC50,[1],252 nM
same,IC50,[2],24.7 nM
same,IC50,integrin αvβ3,2.6 to 3.2 nM
aflibercept [Positive Control 2],IC50,[3],0.026 to 0.136 nM
same,Day 6 Mean Leakage Score,"[4]; Example 9, intravitreal dose 625 μg",0
same,EC50,human VEGF165,0.088 to 0.195 nM
same,Day 6 Mean Leakage Score,"[5]; Example 8, intravitreal dose 625 μg",0
bevacizumab [Positive Control 6],Day 6 Mean Leakage Score,"[4]; Example 9, intravitreal dose 1250 μg",0.17
same,Day 6 Mean Leakage Score,"[5]; Example 8, intravitreal dose 1250 μg",0.25
